The values that follow come from patent publication US10980777B2, “Indole derivatives as histone demethylase inhibitors” (Istituto Europeo di Oncologia S.r.l., priority 2017, dated 2021).

For test [1], the target named is T1, human recombinant KDM1A/CoREST protein (Homo sapiens, UniProt O60341).
T1 construct: made in house; host or cells: E. coli
Description: Assay of enzyme inhibition of KDM1A (LSD1), TR-FRET. Format: biochemical. The procedure:
2.1 Assay of Enzyme Inhibition of KDM1A (LSD1)
The KDM1A inhibiting activity was determined using a TR-FRET assay (time resolved fluorescence resonance energy transfer, Lance® Ultra Demethylase technology (Perkin Elmer, Waltham, Mass., USA)), which comprises a Europium chelate donor dye (TRF0404, Perkin Elmer, Waltham, Mass., USA) together with ULight™ (TR0102, Perkin Elmer, Waltham, Mass., USA), a small molecular weight acceptor dye with a red-shifted fluorescent emission, and a biotinylated 21 amino acids histone H3-derived monomethylated peptide (H3K4me) [Lys(Me1)4]-Histone H3 (1-21)-GGK(biotin), (64355, Anaspec, Fremont, Calif., USA) as substrate. The intensity of the light emission is proportional to the level of biotinylated reaction product. The complex of human recombinant KDM1A/CoREST protein was produced in E. coli as separate proteins and co-purified as previously described.(Forneris, F. et al. Trends Biochem, Sci, 2008, 33, 181-189) (Forneris, F. et al. J. Biol. Chem. 2007, 282, 20070-20074).
Demethylase Assay conditions: 0.25 nM KDM1A/CoREST protein and compound in 100% DMSO were added in a final volume of 48 μL assay buffer (Tris HCl 50 mM pH 8.8, NaCl 50 mM, DTT 1 mM, Tween-20 0.01% (by volume)) to each well of a 96 well half area flat bottom white plate (3693 Costar, Sigma-Aldrich, St. Louis, M, USA).
Demethylase reaction was started by the addition of 50 nM histone H3K4 monomethylated. After 20 min at RT, 300 μM tranylcypromine (P8511-1G, Sigma-Aldrich, St. Louis, Mo. 63103) was added to stop the reaction.
Detection step conditions: 10 μL of the assay mixture was transferred from the original plate into a 384 well white plate (6007290 OptiPlate™, Perkin Elmer, Waltham, Mass., USA) and 10 μL of the detection Mix containing 2 nM Eu-antibody and 10 nM U-Light-Streptavidin in 1× Lance Detection Buffer (TRF0404, TR0102, CR97100, Perkin Elmer, Waltham, Mass., USA). The resulting mixture was incubated in the dark for 1 h at RT. Then, TR-FRET signal was read by a fluorimeter (Infinite® F200, Tecan, Männedorf, Switzerland) (Excitation 320 nm, Emission 665 nm and 620 nm, delay time 50 μs, window time 100 μs).
IC50 determination: The inhibitor concentrations ranged from 0.025 to 500 μM (serial 1:3 dilutions). The IC50 was calculated using GraphPad Software.
(In general: TR-FRET usually uses a lanthanide donor and a delayed reading to cut background.)

The subject of test [2] is Human leukemia MV4-11 cells. The test is described as follows: Cell growth, CellTiter-Fluor cell viability assay, MV4-11. The class given is cell-based. The conditions noted are these: 48 h incubation, read-out: IC50 against human leukemia MV4-11 cells. The source says: (§1) CellTiter-Flor® (Promega) is as a nonlytic, single-reagent-addition fluorescence assay that measures the relative number of living cells in a culture population after experimental manipulation. The CellTiter-Fluor™ Cell Viability Assay measures the conserved and constitutive protease activity within live cells and therefore acts as a marker for cell viability.
(§2) Human leukemia MV4-11 cells, (obtained from the Deutsche Sammlung von Mikroorganismen und Zellkulturen, ACC 102) or NB4 cells, (obtained from the Deutsche Sammlung von Mikroorganismen und Zellkulturen) in exponential growth, were incubated for 48 h with different concentrations of the inhibitors. After 48 h a volume of CellTiter-Fluor® Reagent equal to one fifth of volume of cell culture medium was added. The content was mixed and incubates for at least 90 min at 37° C. degree to obtain a stable signal. The fluorescence was recorded using an excitation wavelength of 360 nm and an emission at 535 nm. The IC50 was calculated using GraphPad Software.

The subject of test [3] is human leukemia NB4 cells. The test is described as follows: Cell growth, CellTiter-Fluor cell viability assay, NB4. Format: cell-based. The conditions noted are these: NB-4, 48 h incubation, read-out: IC50 against human leukemia NB4 cells.
Excerpt: as §1, §2

Setting [4] is: 0.25 nM KDM1A/CoREST, 50 nM H3K4 monomethylated peptide, 20 min at RT, read-out: IC50, KDM1A (LSD1) enzyme inhibition.

Where a name gives a salt, the structure may show the parent alone. Read-outs that look alike come from different tables or passages of the source.

Turning to `Cn1c(C(=O)c2cn(CCOc3ccc(OC[C@@H]4CCNC4)cc3)c3ccccc23)cc2sccc21` (stereo in doubt) [Compound 15, (4-methylthieno[3,2-b]pyrrol-5-yl)-[1-[2-[4-(pyrrolidin-3-ylmethoxy)phenoxy]ethyl]indol-3-yl]methanone hydrochloride], the IC50 (as a rule, the concentration at which inhibition is half-maximal) in test [1] (setting [4]) is less than 0.5 µM; in test [2], less than 10 µM; in test [3], less than 10 µM.

With `Cn1c(C(=O)c2cn(CCOc3cccc(O[C@@H]4CCCNCC4)c3)c3ccccc23)cc2sccc21` (stereo in doubt) [Compound 20, [1-[2-[3-(azepan-4-yloxy)phenoxy]ethyl]indol-3-yl]-(4-methylthieno[3,2-b]pyrrol-5-yl)methanone hydrochloride], the concentration for half-maximal inhibition (IC50) in test [1] (setting [4]) is less than 0.5 µM; in test [3], less than 10 µM.

Consider `Cn1c(C(=O)c2cn(CCOc3ccc(O[C@H]4CCCNCC4)cc3)c3ccccc23)cc2sccc21` (stereo in doubt) [Compound 21, [1-[2-[4-(azepan-4-yloxy)phenoxy]ethyl]indol-3-yl]-(4-methylthieno[3,2-b]pyrrol-5-yl)methanone hydrochloride], for which the 50% inhibitory concentration (IC50) in test [1] (setting [4]) was less than 0.5 µM; in test [3] it was less than 10 µM.

As to `Cn1c(C(=O)c2cn(CCCc3ccc(OC[C@@H]4CCNC4)cc3)c3ccccc23)cc2sccc21` (stereo in doubt) [Compound 22, (4-methylthieno[3,2-b]pyrrol-5-yl)-[1-[3-[4-(pyrrolidin-3-ylmethoxy)phenyl]propyl]indol-3-yl]methanone hydrochloride], the IC50 in test [1] (setting [4]) was less than 0.5 µM; in test [3], less than 10 µM.

On to `Cn1c(C(=O)c2cn(CCCc3ccc(O[C@H]4CCCNCC4)cc3)c3ccccc23)cc2sccc21` (stereo in doubt) [Compound 25, [1-[3-[4-(azepan-4-yloxy)phenyl]propyl]indol-3-yl]-(4-methylthieno[3,2-b]pyrrol-5-yl)methanone hydrochloride], for which the IC50 in test [1] (setting [4]) is less than 0.5 µM.

Regarding `CCn1c(C(=O)c2cn(CCCc3ccc(OC[C@@H]4CCNC4)cc3)c3ccccc23)cc2sccc21` (stereo in doubt) [Compound 28, (4-ethylthieno[3,2-b]pyrrol-5-yl)-[1-[3-[4-(pyrrolidin-3-ylmethoxy)phenyl]propyl]indol-3-yl]methanone hydrochloride], in test [1] (setting [4]), the IC50 was less than 0.5 µM.

With `Cn1c(C(=O)c2cn(CCCc3ccc(OC[C@@H]4CCNC4)cc3)c3ccccc23)cc2ccsc21` (stereo in doubt) [Compound 29, (6-methylthieno[2,3-b]pyrrol-5-yl)-[1-[3-[4-(pyrrolidin-3-ylmethoxy)phenyl]propyl]indol-3-yl]methanone], the IC50 in test [1] (setting [4]) is less than 0.5 µM.

Turning to `Cn1c(C(=O)c2c[nH]c3ccccc23)cc2sccc21` [Compound 1, 1H-indol-3-yl-(4-methylthieno[3,2-b]pyrrol-5-yl)methanone], the IC50 in test [1] (setting [4]) was less than 50 µM.

With `Cc1ccc2[nH]cc(C(=O)c3cc4sccc4n3C)c2c1` [Compound 2, (5-methyl-1H-indol-3-yl)-(4-methylthieno[3,2-b]pyrrol-5-yl)methanone], the IC50 in test [1] (setting [4]) is less than 50 µM.

For `CCn1c(C(=O)c2c[nH]c3ccccc23)cc2sccc21` [Compound 5, (4-ethylthieno[3,2-b]pyrrol-5-yl)-(1H-indol-3-yl)methanone], in test [1] (setting [4]), the IC50 was less than 50 µM.

Consider `Cn1c(C(=O)c2c[nH]c3ccccc23)cc2ccsc21` [Compound 6, 1H-indol-3-yl-(6-methylthieno[2,3-b]pyrrol-5-yl)methanone], for which the half-maximal inhibitory concentration (IC50) in test [1] (setting [4]) is less than 50 µM.

`COCCn1cc(C(=O)c2cc3sccc3n2C)c2ccccc21` [Compound 8, [1-(2-Methoxyethyl)indol-3-yl]-(4-methylthieno[3,2-b]pyrrol-5-yl)methanone]: the IC50 in test [1] was less than 50 µM.

As for `Cn1c(C(=O)c2cn(CCOc3ccccc3OCC3CCNC3)c3ccccc23)cc2sccc21` (stereo not shown) [Compound 11, (4-Methylthieno[3,2-b]pyrrol-5-yl)-[1-[2-[2-(pyrrolidin-3-ylmethoxy)phenoxy]ethyl]indol-3-yl]methanone hydrochloride], the IC50 is less than 5 µM in test [1] (setting [4]), less than 10 µM in test [2] and less than 10 µM in test [3].

Consider `Cn1c(C(=O)c2cn(CCOc3cccc(OCC4CCNC4)c3)c3ccccc23)cc2sccc21` (stereo not shown) [Compound 12, (4-methylthieno[3,2-b]pyrrol-5-yl)-[1-[2-[3-(pyrrolidin-3-ylmethoxy)phenoxy]ethyl]indol-3-yl]methanone], for which the IC50 in test [1] (setting [4]) is less than 0.5 µM.

Turning to `Cn1c(C(=O)c2cn(CCOc3cccc(OC[C@H]4CCNC4)c3)c3ccccc23)cc2sccc21` [Compound 13, (4-methylthieno[3,2-b]pyrrol-5-yl)-[1-[2-[3-[[(3S)-pyrrolidin-3-yl]methoxy]phenoxy]ethyl]indol-3-yl]methanone hydrochloride], the IC50 in test [1] (setting [4]) is less than 0.5 µM; in test [2], less than 10 µM; in test [3] it was less than 10 µM.

Turning to `Cn1c(C(=O)c2cn(CCOc3cccc(OC[C@@H]4CCNC4)c3)c3ccccc23)cc2sccc21` [Compound 14, (4-methylthieno[3,2-b]pyrrol-5-yl)-[1-[2-[3-[[(3R)-pyrrolidin-3-yl]methoxy]phenoxy]ethyl]indol-3-yl]methanone hydrochloride], the IC50 in test [1] (setting [4]) was less than 0.5 µM; in test [2], less than 10 µM; in test [3], less than 10 µM.

Turning to `Cn1c(C(=O)c2cn(CCOc3cccc(OC4CCNCC4)c3)c3ccccc23)cc2sccc21` [Compound 16, (4-methylthieno[3,2-b]pyrrol-5-yl)-[1-[2-[3-(4-piperidyloxy)phenoxy]ethyl]indol-3-yl]methanone hydrochloride], the IC50 in test [1] (setting [4]) was less than 0.5 µM; in test [2] it was less than 10 µM; in test [3] it was less than 10 µM.

Regarding `Cn1c(C(=O)c2cn(CCCc3ccc(OCC4CCNCC4)cc3)c3ccccc23)cc2sccc21` [Compound 23, (4-methylthieno[3,2-b]pyrrol-5-yl)-[1-[3-[4-(4-piperidylmethoxy)phenyl]propyl]indol-3-yl]methanone hydrochloride], the IC50 in test [1] (setting [4]) is less than 0.5 µM; in test [3], less than 10 µM.

For `Cn1c(C(=O)c2cn(CCCc3ccc(OC4CCNCC4)cc3)c3ccccc23)cc2sccc21` [Compound 24, (4-methylthieno[3,2-b]pyrrol-5-yl)-[1-[3-[4-(4-piperidyloxy)phenyl]propyl]indol-3-yl]methanone hydrochloride], the figures for the IC50 in test [1] (setting [4]) and in test [3] were less than 0.5 µM and less than 10 µM, respectively.

As to `Cn1c(C(=O)c2cn(CCCc3ccc(OCC4CCNCC4)c(OCC4CCNCC4)c3)c3ccccc23)cc2sccc21` [Compound 26, [1-[3-[3,4-bis(4-piperidylmethoxy)phenyl]propyl]indol-3-yl]-(4-methylthieno[3,2-b]pyrrol-5-yl)methanone], the IC50 in test [1] (setting [4]) was less than 0.5 µM.

Consider `CCn1c(C(=O)c2cn(CCCc3ccc(OC4CCNCC4)cc3)c3ccccc23)cc2sccc21` [Compound 27, (4-ethylthieno[3,2-b]pyrrol-5-yl)-[1-[3-[4-(4-piperidyloxy)phenyl]propyl]indol-3-yl]methanone hydrochloride], for which, in test [1] (setting [4]), the IC50 was less than 0.5 µM.

Regarding `Cn1c(C(=O)c2cn(CCCc3ccc(OC4CCNCC4)cc3)c3ccccc23)cc2ccsc21` [Compound 30, (6-methylthieno[2,3-b]pyrrol-5-yl)-[1-[3-[4-(4-piperidyloxy)phenyl]propyl]indol-3-yl]methanone], the IC50 in test [1] (setting [4]) is less than 0.5 µM.
